What all share (type): cell-based
One experiment concerns HuH-7 cells. The experiment in a line: WST-1 cell viability assay in HuH-7 cells. Here is the method:
(§1) The fatty acids (FAs) TTA, tr-TTA, N-TTA, tr-N-TTA and (PA) were complexed with FBS following the same procedure, differing only in final stock concentration, due to variation in solubility. Approximately 0.07 g of FA was weighed in a 10 ml sterile serum tube (BD Vacutainer®, catalog no. 368430) and dissolved in sterile filtrated 0.1 M sodium hydroxide (NaOH) of a volume giving 25 mM FA, controls without FA were made, containing only NaOH and FBS. A syringe (Sterican®, catalog no. 4657577) was pierced through the rubber cap of the serum tube, and the tube was placed in an 80° C. water bath until the FAs were dissolved. Each FA-solution was then diluted in inactivated FBS to stock concentration 1 mM (N-TTA, tr-N-TTA), and 2 mM by adding the FA to a volume of 100% FBS after heating the FBS to 45° C. in a water bath. The transfer of FA to FBS had to be executed controlled and swiftly to avoid the formation of precipitates. If any precipitates in the solution were visible, the FA and a new volume of FBS were reheated, and the procedure performed again. Following successful complexation, the stock solutions were stored at −20° C. in 1 ml aliquots (CryoPure tube, Sarstedt AG & Co, Nümbrecht, Germany).
(§2) The WST-1 cell proliferation assay was performed using the kit from Roche (table 4.2.) and its accompanying procedure (version 16, February 2011) (134). The number of cells seeded to each well in the 96-well plates (Corning Inc., catalog no. 353072) varied depending on the treatment time and cell type (table 3.).
(§3) Cell suspension and medium were then transferred to each well in a volume of 100 μl in total. Subsequently, the plates were incubated for 24 hours to make the cells settle. The next day, 100 μl with FA complexed with FBS or diluted in DMSO was added to row A or B in the 96-well plate to give a defined concentration. The solution was then mixed with a pipette, and 100 μl of the medium with FA was transferred to the next well in the same column, mixed by pipetting up and down at least five times before 100 μl was transferred again to the next well in the column. This procedure was repeated until the second last, or last well in each column was reached, making a series of two-fold dilution of the FAs in the cell medium. Two parallels were performed for every treatment per run. After the addition of FAs, the plates were incubated for 24-96 hours depending on the length of the treatment.
(§4) Following the FA-treatment, the cells were studied under a microscope to ensure that visual observations matched the measured absorbance and cell activity in the assay. Subsequently, 10 μl WST-1 reagent was added to each well, and the plates were incubated for 3 hours. Due to high activity in the HuH-7 cell line, the WST-1 reagent was diluted 1:1 with PBS. Before the measurement of absorbance, the plates were placed on a shaker for 1 minute ensuring thoroughly mixing of the wells. The plates were then put straight into the spectrophotometer (SpectraMax Plus 384 Microplate Reader, Molecular Devices Corporation, San Jose, Calif., USA) to perform the measurements. The accompanying software was used (SoftMax Pro, Molecular Devices Corporation, San Jose, Calif., USA) to obtain the results. The absorbance of the samples was measured at 450 nm, and the reference wavelength was set to 650 nm. For each well, the measured absorption at 650 nm was subtracted from the absorption at 450 nm. The measured absorbance for the treated cells was then compared to the controls (blank) containing only cells and growth medium.
On the technique in general: Tetrazolium assays rely on reduction of a dye to a coloured formazan, in cell work by metabolically active cells.

The test system of experiment [1] is HeLaNRF1/c4 reporter cells. The experiment in a line: Gene expression (qPCR) in HeLaNRF1/c4 reporter cells. The note with it: long-term treatment. Here is the method:
The HeLaNRF1/c4 reporter cells were employed to investigate effects of the modified fatty acids on NRF1-regulated mitochondrial biogenesis. The cells (250,000) were seeded in T75 flasks and incubated for 3 hours to allow attachment. The compounds were dissolved in DMSO and diluted in culture medium to provide the final concentration. DMSO at a concentration equivalent to the highest compound concentration was added to control cultures. Resveratrol and AICAR were used as positive controls. Resveratrol has not previously been tested in this reporter model, but we found it relevant to include it for purposes of experimental and mechanistic comparisons. After 3 days of treatment the media was replaced with fresh media containing the corresponding compound. On day 5, the cells were harvested and the cultures split into three fractions: One fraction was used for detection of mitoGFP expression by flow cytometry, to assess effects on NRF-1 regulated mitochondrial biogenesis. Flow cytometry analysis was performed as previously described. Another fraction was used for extraction of RNA and subsequent gene expression analysis using quantitative PCR (see below). The last fraction was employed to investigate effects on mitochondrial respiratory function by extracellular flux analysis (described above). The experiment was replicated three times.
Total RNA was extracted from harvested cells (RNAeasy kit Qiagen, Hilden, Germany). The RNA content was quantified on Nanodrop 1000 Spectrophotometer (Thermo Scientific). From 1 μg total RNA, cDNA was synthesized using High-Capacity Reverse Transcription Kit (Applied Biosystems, Carlsbad, Calif., US). Gene quantification was done using TaqMan probes for gene expression assays (Applied Biosystems). Probes used were: PGC1α (PPARG coactivator 1α), Hs00173304_m1; HIF1α (hypoxia inducible factor 1α), Hs00153153_m1; PDK1 (pyruvate dehydrogenase kinase 1), Hs01561847_m1; PDK4, (pyruvate dehydrogenase kinase 4), Hs01037712_m1; SIRT4 (sirtuin 4) Hs01015516_g1; ACOX1 (acyl-CoA oxidase 1) Hs01074241_m1; as reference genes, we used; Eukaryotic 18S rRNA Hs99999901_s1; actin beta Hs99999903_m1. Fold change was calculated as geometric mean of ΔΔCt of the two reference genes.

Another experiment relates to SH-SY5Y cells. The experiment in a line: WST-1 cell viability assay in SH-SY5Y cells. The note with it: 4 days, 31-125 μM. Here is the method:
as §1, §2, §3
as §4, with “The accompanying software was used (SoftMax Pro, Molecular Devices Corporation, San Jose, Calif., USA) to obtain the results.” left out

Data on one compound can be found in US20220249525A1, “Fatty Acid Compounds for Prevention and Treatment of Neurodegenerative Disorders” (T OMEGA AS, priority 2019, published 2022).

As to `CCCCCCCCCCCCCCNCC(=O)O` [N-TTA, N-tetradecylglycine], the “WST-1 activity compared to untreated cells” value in the experiment with HuH-7 cells (2 days, 16 μM, complexed with FBS) is reported as 116%; in the experiment with SH-SY5Y cells, “about 110%”. The “WST-1 activity compared to no treatment” value in the experiment with HuH-7 cells (2 days, 125-250 μM) is listed as 50-60%. Moreover, the WST-1 activity result in the experiment on HuH-7 cells (4 days, 1000 μM) is given as “The same result was true”. Moreover, in experiment [1], the PDK4 expression result is “significantly increased”. In experiment [1] (vs control), the PGC1α expression result was “significant increase”.
